Some test systems named below: 786-0; ACHN; CAKI-1; EKVX; HCT-15; KM12; NCI-H460; NCI-H522; OVCAR-8; RPMI-8226; RXF 393; SK-MEL-28; SNB-19; TK-10; UACC-257; UACC-62.
Common to all, as to experiment: DTP human tumour cell line panel, 48 h

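Protocol summary: plate cells (96-well), add compound at 5 concentrations, incubate 48 h, interpolate endpoints linearly. The concentration for 50% growth inhibition is given as GI50.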 Activity calls are given as the source filed them. No stated cut-off is given here; in the data, active = GI50 up to about 1.1 µM and inactive = higher.

The values below come from ChEMBL document CHEMBL1201862, “PubChem BioAssay data set” (2004).

Consider `N/N=c1/nc2n(c3ncccc13)C=CNN2`, for which the GI50 (commonly the concentration at which growth is held to half of that of the control) with 786-0 was > 100 µM (inactive); in the test with ACHN it was > 100 µM (inactive); in the test with CAKI-1 it was > 100 µM (inactive); in the test on EKVX it was > 100 µM (inactive); in the test on HCT-15 it was greater than 100 µM; in the test on KM12, > 100 µM (inactive). For the same molecule, the GI50 in the test with NCI-H460, in the test on NCI-H522, in the test on OVCAR-8, with RPMI-8226, in the test with RXF 393 and in the test with SK-MEL-28 was > 100 µM (inactive) in each case. Moreover, the GI50 in the test on SNB-19, in the test with TK-10, in the test with UACC-257 and with UACC-62 was > 100 µM (inactive) each time.
On to `CC(=O)Oc1ccc(O)c(O)c1C/C=C(\C)CC/C=C(\C)CC/C=C(\C)CCC=C(C)C` [TETRAPRENYLPHENOLSUILLIN], for which the concentration for 50% growth inhibition (GI50) with 786-0 is 1.1 µM (active); in the test on ACHN it was 0.275 µM (active); in the test on CAKI-1 it was 2.65 µM (inactive); in the test on EKVX it was 1.55 µM (inactive); in the test with KM12, 0.476 µM (active); in the test with NCI-H460, 0.365 µM (active). Besides, the GI50 in the test on NCI-H522 is 1.51 µM (inactive); in the test on OVCAR-8, 0.392 µM (active); in the test on RXF 393 it was 1.2 µM (inactive); in the test with SK-MEL-28, 0.656 µM (active); with SNB-19, 0.424 µM (active); with TK-10 it was 1.32 µM (inactive). Besides, in the test on UACC-257, the GI50 is 0.65 µM (active).
On to `O=C(Cc1csc(-c2nc(CC(=O)NNc3ccccc3)cs2)n1)NNc1ccccc1`, for which the GI50 was 35.6 µM (inactive) in the test on 786-0; > 100 µM (inactive) with ACHN; > 100 µM (inactive) with CAKI-1; > 100 µM (inactive) in the test with EKVX; 38.4 µM in the test on HCT-15; > 100 µM (inactive) in the test on KM12. The GI50 was 23.5 µM (inactive) in the test on NCI-H460; 20.4 µM (inactive) with NCI-H522; > 100 µM (inactive) in the test on OVCAR-8; > 100 µM (inactive) in the test with RPMI-8226; > 100 µM (inactive) in the test with RXF 393; > 100 µM (inactive) with SK-MEL-28. For the same molecule, the GI50 with SNB-19, with TK-10, in the test with UACC-257 and with UACC-62 was > 100 µM (inactive) each time.
As to `COC(=O)C1C2C=CC(C2)C1(C(=O)OC)[S+]([O-])CC12CCC(CC1O)C2(C)C` (stereo not given), the GI50 with 786-0 was > 100 µM (inactive); in the test with ACHN it was > 100 µM (inactive); in the test with CAKI-1 it was > 100 µM (inactive); in the test with EKVX it was > 100 µM (inactive); in the test on HCT-15 it was 19.2 µM; in the test on KM12 it was > 100 µM (inactive). The GI50 was > 100 µM (inactive) with NCI-H460; > 100 µM (inactive) in the test on NCI-H522; > 100 µM (inactive) in the test on OVCAR-8; 70.1 µM (inactive) with RPMI-8226; 77.8 µM (inactive) in the test on RXF 393; > 100 µM (inactive) in the test with SK-MEL-28. Besides, the GI50 in the test with SNB-19, in the test on TK-10, with UACC-257 and with UACC-62 was > 100 µM (inactive) in each case.
Turning to `C[C@]12CC/C(=N\O)C=C1CC[C@@H]1C2CC[C@@]2(C)C1CC[C@@H]2OC1CCCCO1` (stereo not given in full), the GI50 was 17.7 µM (inactive) with 786-0; 16.3 µM (inactive) in the test with ACHN; > 10 µM (inactive) with CAKI-1; 17.7 µM (inactive) in the test on EKVX; 20.1 µM in the test with HCT-15; 16.7 µM (inactive) in the test with KM12. Further, the GI50 is 20.4 µM (inactive) with NCI-H460; 17.4 µM (inactive) in the test on NCI-H522; > 100 µM (inactive) with OVCAR-8; 15.7 µM (inactive) in the test on RPMI-8226; 25.4 µM (inactive) with RXF 393; 22.7 µM (inactive) in the test with SK-MEL-28. Moreover, the GI50 in the test on SNB-19 is 18.3 µM (inactive); in the test with TK-10, 22.8 µM (inactive); with UACC-257 it was 20.4 µM (inactive); with UACC-62, > 10 µM (inactive).
On to `CCCCCCC(=O)OC[n+]1ccc2c(C)c3[nH]c4ccccc4c3c(C)c2c1`, for which the GI50 with 786-0 is 0.418 µM (active); in the test on ACHN it was 0.703 µM (active); in the test on CAKI-1, 1.58 µM (inactive); in the test on EKVX, 0.403 µM (active); with HCT-15 it was 0.348 µM; in the test with NCI-H460, 0.0728 µM (active). In addition, the GI50 in the test with NCI-H522 was 1.56 µM (inactive); in the test with OVCAR-8, 0.34 µM (active); in the test with RPMI-8226 it was 0.0785 µM (active); with RXF 393, 1 µM (active); in the test on SK-MEL-28, 1.56 µM (inactive); with TK-10, 3.13 µM (inactive). Further, the GI50 is 1.79 µM (inactive) with UACC-257 and 2.72 µM (inactive) in the test on UACC-62.
Regarding `COc1cc2c(cc1OC)-c1cc(OC)c(OC)cc1[C@H]1CN3CCC[C@@]3(O)C=C21`, the GI50 was < 0.0001 µM (active) in the test on 786-0; < 0.0001 µM (active) in the test on ACHN; < 0.0001 µM (active) with CAKI-1; < 0.0001 µM (active) in the test on EKVX; less than 0.0001 µM with HCT-15; < 0.0001 µM (active) in the test on KM12. Further, the GI50 in the test on NCI-H460 is < 0.0001 µM (active); with NCI-H522, < 0.0001 µM (active); in the test on OVCAR-8, < 0.0001 µM (active); with RPMI-8226, < 0.0001 µM (active); in the test with RXF 393, 0.01 µM (active); in the test with SK-MEL-28, < 0.0001 µM (active). The GI50 is < 0.0001 µM (active) in the test with SNB-19, 0.000145 µM (active) in the test with TK-10, < 0.0001 µM (active) in the test with UACC-257 and < 0.0001 µM (active) with UACC-62.
For `O=C1/C(=N\O)c2ccccc2S1(=O)=O`, the GI50 with 786-0 was 61 µM (inactive); with ACHN it was > 100 µM (inactive); in the test with CAKI-1, 16.6 µM (inactive); in the test on HCT-15, greater than 100 µM; in the test with KM12 it was > 100 µM (inactive); with NCI-H460 it was > 100 µM (inactive). Also, the GI50 was 60 µM (inactive) in the test with NCI-H522; > 100 µM (inactive) with OVCAR-8; 64.3 µM (inactive) in the test with RPMI-8226; > 100 µM (inactive) in the test with RXF 393; > 100 µM (inactive) with SNB-19; 61.5 µM (inactive) in the test with TK-10. The GI50 was > 100 µM (inactive) with UACC-257 and 95.9 µM (inactive) with UACC-62.
For the molecule `Cc1cc(Br)cc(C)c1NC(=O)C(=O)C(C(=O)c1ccncc1)C1OC(=O)c2ccccc21` (stereo not given), the GI50 with 786-0 was > 100 µM (inactive); in the test on ACHN, > 100 µM (inactive); in the test on CAKI-1, > 100 µM (inactive); in the test on EKVX it was > 100 µM (inactive); in the test on HCT-15, greater than 100 µM; in the test on KM12, > 100 µM (inactive). Further, the GI50 in the test on NCI-H460, with NCI-H522, with OVCAR-8, in the test on RPMI-8226, in the test with RXF 393 and in the test with SNB-19 was > 100 µM (inactive) in each case. Also, the GI50 with TK-10, with UACC-257 and with UACC-62 was > 100 µM (inactive) each time.
For `CN1CN(C2OC(CO)C(O)C2O)c2nc(N)[nH]c(=O)c21` (stereo not given), the GI50 with 786-0 is > 100 µM (inactive); with ACHN, > 100 µM (inactive); in the test on CAKI-1, > 100 µM (inactive); in the test on EKVX, > 100 µM (inactive); with HCT-15 it was greater than 100 µM; in the test on KM12, > 100 µM (inactive). For the same molecule, the GI50 with NCI-H460 is > 100 µM (inactive); in the test on NCI-H522 it was 5.15 µM (inactive); in the test on OVCAR-8 it was > 100 µM (inactive); with RPMI-8226 it was > 100 µM (inactive); in the test with RXF 393, > 100 µM (inactive); in the test with SNB-19 it was > 100 µM (inactive). Moreover, the GI50 in the test with TK-10, in the test on UACC-257 and in the test with UACC-62 was > 100 µM (inactive) each time.
Turning to `NC1=NS(=O)(=O)Nc2nc(-c3ccc([N+](=O)[O-])cc3)[nH]c21`, the GI50 with 786-0 was > 100 µM (inactive); with ACHN, > 100 µM (inactive); in the test with CAKI-1 it was > 100 µM (inactive); in the test on HCT-15, greater than 100 µM; in the test on KM12, > 100 µM (inactive); with NCI-H460, > 100 µM (inactive). The GI50 with NCI-H522, with OVCAR-8, in the test on RPMI-8226, with RXF 393, in the test with SK-MEL-28 and in the test with SNB-19 was > 100 µM (inactive) in each case. The GI50 in the test on TK-10 and in the test with UACC-62 was > 100 µM (inactive) in each case.
With `CSc1c([S+](C)[O-])[nH]c2cc(Br)cc(Br)c12` (stereo not given), the GI50 in the test on 786-0 is 16 µM (inactive); in the test with ACHN it was 24.5 µM (inactive); in the test with CAKI-1 it was 25.1 µM (inactive); in the test with EKVX, 14.3 µM (inactive); in the test on HCT-15, 22.8 µM; in the test with KM12, 24.6 µM (inactive). The GI50 in the test with NCI-H460 was 16.7 µM (inactive); in the test on NCI-H522 it was 23.3 µM (inactive); with OVCAR-8 it was 22 µM (inactive); in the test on RPMI-8226, 18.8 µM (inactive); in the test with RXF 393, 14 µM (inactive); in the test on SK-MEL-28 it was 20.7 µM (inactive). The GI50 was 27.8 µM (inactive) in the test on TK-10, 33.3 µM (inactive) in the test on UACC-257 and 17.9 µM (inactive) in the test with UACC-62.
Regarding `COC(=O)/C(C#N)=C1\CCC(Nc2cccc(C(F)(F)F)c2)N1C` (stereo not given), the GI50 was > 100 µM (inactive) in the test on 786-0; 61.8 µM (inactive) with ACHN; > 100 µM (inactive) with CAKI-1; > 100 µM (inactive) in the test with EKVX; 59.6 µM (inactive) with KM12; > 100 µM (inactive) in the test with NCI-H460. Moreover, the GI50 in the test on NCI-H522 was > 100 µM (inactive); with OVCAR-8 it was > 100 µM (inactive); in the test on RPMI-8226, > 100 µM (inactive); in the test with RXF 393, 46.1 µM (inactive); with SK-MEL-28 it was > 100 µM (inactive); in the test on SNB-19, > 100 µM (inactive). In addition, the GI50 was > 100 µM (inactive) in the test with TK-10, > 100 µM (inactive) in the test with UACC-257 and 61 µM (inactive) in the test on UACC-62.
